Experimental data from patent US20200078468A1, “NEUROTENSIN RECEPTOR BINDING CONJUGATES AND FORMULATIONS THEREOF” (priority 2016, published 2020).
Read-outs that look alike come from different tables or passages of the source. Numbered stars: 1 amine (or outer) side, 2 acyl side, 3 side chain; on linkers, the order of the positions; unused ones are H or OH. Bridge positions count the residues as written; N and C are the ends. Square brackets hold non-standard residues; d marks the D form. Peptide text beside a SMILES is read from it. I, II: the chains in the order shown. * marks the point of attachment. SN38(20-O) = CCc1c2c(nc3ccc(O)cc13)-c1cc3c(c(=O)n1C2)COC(=O)[C@@]3(CC)O*; Hexanoyl(6-succinimido-3yl) = O=C1CC([*:1])C(=O)N1CCCCCC(=O)[*:2]; NMeR = CN[C@@H](CCCNC(=N)N)C(=O)O; Pen = CC(C)(S)[C@H](N)C(=O)O; Tle = CC(C)(C)[C@H](N)C(=O)O

System: SW48 (human colon cancer cells)
Experiment: inhibition of SW48 cell proliferation (CellTiter Glo)
Type: cell-based
Conditions: 72 hrs, read-out: SW-48 proliferation IC50
Protocol: Conjugates were assessed in an in vitro assay evaluating inhibition of cell proliferation. SW48 (human colon cancer cells, ATCC®), cells were plated in 96 well, flat-bottomed plates (Costar) at a concentration of 5,000 cells/well. Cells were then incubated at 37° C. with 5% CO2 for 24 hrs. After 24 hrs, cells were treated with 0.01% DMSO or compound. Compounds were added at a starting dose of 10 μM and three fold serial dilutions were done for a total often points. Following compound addition, cells were incubated at 37° C. with 5% CO2 for 72 hrs. Proliferation was measured by CellTiter Glo reagent using the standard protocol (Promega) and a Glomax multi+detection system (Promega). Percent proliferation inhibition was calculated using the following formula: % inhibition=(control−treatment)/control*100. Control is defined as vehicle alone. IC50 curves were generated using the nonlinear regression analysis (four parameter) with GraphPad Prism 6.
Conjugates are assessed for receptor-dependent cytotoxicity by the difference between an NTSR1-targeting conjugate, and the corresponding conjugate with the same linker moiety and active agent where the NTSR1-targeting domain has been scrambled.

| SMILES | IC50 (NTSR1 targeted compound) [nM] | IC50 (NTSR1 scrambled compound) [nM] |
| --- | --- | --- |
| CCc1c2c(nc3ccc(O)cc13)-c1cc3c(c(=O)n1C2)COC(=O)[C@@]3(CC)OC(=O)CNC(=O)CNC(=O)[C@H](CC(C)C)NC(=O)[C@H](Cc1ccccc1)NC(=O)CNC(=O)CCCCCN1C(=O)CC(SC(C)(C)[C@H](NC(C)=O)C(=O)N2CCC[C@H]2C(=O)N(C)[C@@H](CCCNC(=N)N)C(=O)N[C@@H](CCCNC(=N)N)C(=O)N2CCC[C@H]2C(=O)N[C@@H](Cc2ccc(O)cc2)C(=O)N[C@H](C(=O)N[C@@H](CC(C)C)C(=O)O)C(C)(C)C)C1=O (stereo partly drawn) [Compound 67] (I: Ac-[Pen]P[NMeR]RPY[Tle]L-OH / II: GFLGG-{SN38(20-O)}; linker I:1-II:N via Hexanoyl(6-succinimido-3yl)) | 816 | – |
| CCc1c2c(nc3ccc(O)cc13)-c1cc3c(c(=O)n1C2)COC(=O)[C@@]3(CC)OC(=O)CNC(=O)CNC(=O)[C@H](CC(C)C)NC(=O)[C@H](Cc1ccccc1)NC(=O)CNC(=O)CCCCCN1C(=O)CC(SC(C)(C)[C@H](NC(C)=O)C(=O)N2CCC[C@H]2C(=O)N[C@@H](CC(C)C)C(=O)N2CCC[C@H]2C(=O)N[C@@H](CCCNC(=N)N)C(=O)N[C@H](C(=O)N[C@@H](CCCNC(=N)N)C(=O)N[C@@H](Cc2ccc(O)cc2)C(=O)O)C(C)(C)C)C1=O (stereo partly drawn) [Compound 99] | – | 784 |
| COc1cc2cc(c1Cl)N(C)C(=O)C[C@H](OC(=O)[C@H](C)N(C)C(=O)CCSC1CC(=O)N(CCCNC(=O)CNC(=O)[C@H](CC(C)C)NC(=O)[C@H](Cc3ccccc3)NC(=O)CNC(=O)CCCCCN3C(=O)CC(SCCC(=O)NCCOCCOCCOCCOCCC(=O)NCCCC[C@H](NC(C)=O)C(=O)N4CCC[C@H]4C(=O)N[C@@H](CC(C)C)C(=O)N4CCC[C@H]4C(=O)N(C)[C@@H](CCCNC(=N)N)C(=O)N[C@H](C(=O)N[C@@H](CCCNC(=N)N)C(=O)N[C@@H](Cc4ccc(O)cc4)C(=O)O)C(C)(C)C)C3=O)C1=O)[C@]1(C)O[C@H]1[C@H](C)[C@@H]1C[C@@](O)(NC(=O)O1)[C@H](OC)/C=C/C=C(\C)C2 (stereo partly drawn) [Compound 84] | – | 48.5 |
| CO[C@H]1C(=O)[C@]2(C)[C@@H](OC)C[C@H]3OC[C@@]3(OC(C)=O)[C@H]2[C@H](OC(=O)c2ccccc2)[C@]2(O)C[C@H](OC(=O)[C@H](OC(=O)N(C)CCCNC(=O)CNC(=O)[C@H](CC(C)C)NC(=O)[C@H](Cc3ccccc3)NC(=O)CNC(=O)CCCCCN3C(=O)CC(SCCC(=O)NCCCC[C@H](NC(C)=O)C(=O)N4CCC[C@H]4C(=O)N[C@@H](CC(C)C)C(=O)N4CCC[C@H]4C(=O)N(C)[C@@H](CCCNC(=N)N)C(=O)N[C@H](C(=O)N[C@@H](CCCNC(=N)N)C(=O)N[C@@H](Cc4ccc(O)cc4)C(=O)O)C(C)(C)C)C3=O)[C@@H](NC(=O)OC(C)(C)C)c3ccccc3)C(C)=C1C2(C)C (stereo partly drawn) [Compound 74] | – | > 10000 |
| COc1cccc2c1C(=O)c1c(O)c3c(c(O)c1C2=O)C[C@@](O)(C(=O)CO)C[C@@H]3O[C@H]1C[C@H](NC(=O)OCCSSC(C)(C)[C@H](NC(C)=O)C(=O)N2CCC[C@H]2C(=O)N[C@@H](CC(C)C)C(=O)N2CCC[C@H]2C(=O)N[C@@H](CCCNC(=N)N)C(=O)N[C@H](C(=O)N[C@@H](CCCNC(=N)N)C(=O)N[C@@H](Cc2ccc(O)cc2)C(=O)O)C(C)(C)C)[C@H](O)[C@H](C)O1 [Compound 88] | – | 1940 |
| CO[C@H]1C(=O)[C@]2(C)[C@@H](OC)C[C@H]3OC[C@@]3(OC(C)=O)[C@H]2[C@H](OC(=O)c2ccccc2)[C@]2(O)C[C@H](OC(=O)[C@H](OC(=O)N(C)CCN(C)C(=O)OCc3ccc(NC(=O)[C@H](CCCNC(N)=O)NC(=O)[C@@H](NC(=O)CCCCCN4C(=O)CC(SC(C)(C)[C@H](NC(C)=O)C(=O)N5CCC[C@H]5C(=O)N[C@@H](CC(C)C)C(=O)N5CCC[C@H]5C(=O)N[C@@H](CCCNC(=N)N)C(=O)N[C@H](C(=O)N[C@@H](CCCNC(=N)N)C(=O)N[C@@H](Cc5ccc(O)cc5)C(=O)O)C(C)(C)C)C4=O)C(C)C)cc3)[C@@H](NC(=O)OC(C)(C)C)c3ccccc3)C(C)=C1C2(C)C (stereo partly drawn) [Compound 73] | – | 2620 |
| CC(=O)N[C@H](C(=O)N1CCC[C@H]1C(=O)N[C@@H](CC(C)C)C(=O)N1CCC[C@H]1C(=O)N[C@@H](CCCNC(=N)N)C(=O)N[C@H](C(=O)N[C@@H](CCCNC(=N)N)C(=O)N[C@@H](Cc1ccc(O)cc1)C(=O)O)C(C)(C)C)C(C)(C)SC1CC(=O)N(CCCCCC(=O)N[C@@H](Cc2ccccc2)C(=O)N[C@@H](CC(C)C)B2O[C@@H]3[C@@H]4C[C@H](C[C@]3(C)O2)C4(C)C)C1=O (stereo partly drawn) [Compound 69] | – | > 10000 |
| CO[C@H]1C(=O)[C@]2(C)[C@@H](OC)C[C@H]3OC[C@@]3(OC(C)=O)[C@H]2[C@H](OC(=O)c2ccccc2)[C@]2(O)C[C@H](OC(=O)[C@H](OC(=O)N(C)CCN(C)C(=O)OCc3ccc(NC(=O)[C@H](CCCNC(N)=O)NC(=O)[C@@H](NC(=O)CCCCCN4C(=O)CC(SC(C)(C)[C@H](NC(C)=O)C(=O)N5CCC[C@H]5C(=O)N[C@@H](CCCCN)C(=O)N(C)[C@@H](CCCNC(=N)N)C(=O)N5CCC[C@H]5C(=O)N[C@@H](Cc5ccc(O)cc5)C(=O)N[C@H](C(=O)N[C@@H](CC(C)C)C(=O)O)C(C)(C)C)C4=O)C(C)C)cc3)[C@@H](NC(=O)OC(C)(C)C)c3ccccc3)C(C)=C1C2(C)C (stereo partly drawn) [Compound 8] | 2450 | – |
| COc1cc2cc(c1Cl)N(C)C(=O)C[C@H](OC(=O)[C@H](C)N(C)C(=O)CCSC1CC(=O)N(CCCNC(=O)CNC(=O)[C@H](CC(C)C)NC(=O)[C@H](Cc3ccccc3)NC(=O)CNC(=O)CCCCCN3C(=O)CC(SCCC(=O)NCCCC[C@H](NC(C)=O)C(=O)N4CCC[C@H]4C(=O)N[C@@H](CC(C)C)C(=O)N4CCC[C@H]4C(=O)N(C)[C@@H](CCCNC(=N)N)C(=O)N[C@H](C(=O)N[C@@H](CCCNC(=N)N)C(=O)N[C@@H](Cc4ccc(O)cc4)C(=O)O)C(C)(C)C)C3=O)C1=O)[C@]1(C)O[C@H]1[C@H](C)[C@@H]1C[C@@](O)(NC(=O)O1)[C@H](OC)/C=C/C=C(\C)C2 (stereo partly drawn) [Compound 82] | – | 435 |
| COc1cc2cc(c1Cl)N(C)C(=O)C[C@H](OC(=O)[C@H](C)N(C)C(=O)CCSC1CC(=O)N(CCCNC(=O)CNC(=O)[C@H](CC(C)C)NC(=O)[C@H](Cc3ccccc3)NC(=O)CNC(=O)CCCCCN3C(=O)CC(SCCC(=O)NCCOCCOCCC(=O)NCCCC[C@H](NC(C)=O)C(=O)N4CCC[C@H]4C(=O)N[C@@H](CC(C)C)C(=O)N4CCC[C@H]4C(=O)N(C)[C@@H](CCCNC(=N)N)C(=O)N[C@H](C(=O)N[C@@H](CCCNC(=N)N)C(=O)N[C@@H](Cc4ccc(O)cc4)C(=O)O)C(C)(C)C)C3=O)C1=O)[C@]1(C)O[C@H]1[C@H](C)[C@@H]1C[C@@](O)(NC(=O)O1)[C@H](OC)/C=C/C=C(\C)C2 (stereo partly drawn) [Compound 83] | – | 1830 |
| CCc1c2c(nc3ccc(O)cc13)-c1cc3c(c(=O)n1C2)COC(=O)[C@@]3(CC)OC(=O)OCCSSC(C)(C)[C@H](NC(C)=O)C(=O)N1CCC[C@H]1C(=O)N[C@@H](CC(C)C)C(=O)N1CCC[C@H]1C(=O)N[C@@H](CCCNC(=N)N)C(=O)N[C@H](C(=O)N[C@@H](CCCNC(=N)N)C(=O)N[C@@H](Cc1ccc(O)cc1)C(=O)O)C(C)(C)C [Compound 97] | – | 122 |
| CC[C@H](C)[C@@H]([C@@H](CC(=O)N1CCC[C@H]1[C@H](OC)[C@@H](C)C(=O)N[C@H](C)[C@@H](O)c1ccccc1)OC)N(C)C(=O)[C@@H](NC(=O)[C@H](C(C)C)N(C)C(=O)OCc1ccc(NC(=O)[C@H](CCCNC(N)=O)NC(=O)[C@@H](NC(=O)CCCCCN2C(=O)CC(SCCC(=O)NCCOCCOCCOCCOCCC(=O)NCCCC[C@H](NC(C)=O)C(=O)N3CCC[C@H]3C(=O)N(C)[C@@H](CCCNC(=N)N)C(=O)N[C@@H](CCCNC(=N)N)C(=O)N3CCC[C@H]3C(=O)N[C@@H](Cc3ccc(O)cc3)C(=O)N[C@H](C(=O)N[C@@H](CC(C)C)C(=O)O)C(C)(C)C)C2=O)C(C)C)cc1)C(C)C (stereo partly drawn) [Compound 61] | 33.7 | – |
| COc1cc2cc(c1Cl)N(C)C(=O)C[C@H](OC(=O)[C@H](C)N(C)C(=O)CCSC1CC(=O)N(CCCNC(=O)CNC(=O)[C@H](CC(C)C)NC(=O)[C@H](Cc3ccccc3)NC(=O)CNC(=O)CCCCCN3C(=O)CC(SCCC(=O)NCCOCCOCCOCCOCCC(=O)NCCCC[C@H](NC(C)=O)C(=O)N4CCC[C@H]4C(=O)N(C)[C@@H](CCCNC(=N)N)C(=O)N[C@@H](CCCNC(=N)N)C(=O)N4CCC[C@H]4C(=O)N[C@@H](Cc4ccc(O)cc4)C(=O)N[C@H](C(=O)N[C@@H](CC(C)C)C(=O)O)C(C)(C)C)C3=O)C1=O)[C@]1(C)O[C@H]1[C@H](C)[C@@H]1C[C@@](O)(NC(=O)O1)[C@H](OC)/C=C/C=C(\C)C2 (stereo partly drawn) [Compound 25] | 2.2 | – |
| CO[C@H]1C(=O)[C@]2(C)[C@@H](OC)C[C@H]3OC[C@@]3(OC(C)=O)[C@H]2[C@H](OC(=O)c2ccccc2)[C@]2(O)C[C@H](OC(=O)[C@H](OC(=O)CCCCCN3C(=O)CC(SC(C)(C)[C@H](NC(C)=O)C(=O)N4CCC[C@H]4C(=O)N[C@@H](CC(C)C)C(=O)N4CCC[C@H]4C(=O)N[C@@H](CCCNC(=N)N)C(=O)N[C@H](C(=O)N[C@@H](CCCNC(=N)N)C(=O)N[C@@H](Cc4ccc(O)cc4)C(=O)O)C(C)(C)C)C3=O)[C@@H](NC(=O)OC(C)(C)C)c3ccccc3)C(C)=C1C2(C)C (stereo partly drawn) [Compound 72] | – | 368 |
| CO[C@H]1C(=O)[C@]2(C)[C@@H](OC)C[C@H]3OC[C@@]3(OC(C)=O)[C@H]2[C@H](OC(=O)c2ccccc2)[C@]2(O)C[C@H](OC(=O)[C@H](OC(=O)N(C)CCCNC(=O)CNC(=O)[C@H](CC(C)C)NC(=O)[C@H](Cc3ccccc3)NC(=O)CNC(=O)CCCCCN3C(=O)CC(SCCC(=O)NCCCC[C@H](NC(C)=O)C(=O)N4CCC[C@H]4C(=O)N(C)[C@@H](CCCNC(=N)N)C(=O)N[C@@H](CCCNC(=N)N)C(=O)N4CCC[C@H]4C(=O)N[C@@H](Cc4ccc(O)cc4)C(=O)N[C@H](C(=O)N[C@@H](CC(C)C)C(=O)O)C(C)(C)C)C3=O)[C@@H](NC(=O)OC(C)(C)C)c3ccccc3)C(C)=C1C2(C)C (stereo partly drawn) [Compound 9] | > 10000 | – |
